#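 Briefly, cells in 96-well plates were exposed to five compound concentrations for 48 h, and endpoints were estimated by linear interpolation. Abbreviation: GI50, concentration required for 50% inhibition of growth.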 The source made the active and inactive calls. No stated cut-off is given here; in the data, active = GI50 up to about 1.1 µM and inactive = higher.
# Legend:
# Test in all cases: DTP human tumour cell line panel, 48 h
# SW-620 = system: SW-620
# SK-MEL-5 = system: SK-MEL-5
# SNB-75 = system: SNB-75
# A498 = system: A498
# LOX IMVI = system: LOX IMVI
# SK-OV-3 = system: SK-OV-3
# MOLT-4 = system: MOLT-4
# MCF7 = system: MCF7
# NCI-H522 = system: NCI-H522
# ACHN = system: ACHN
# HOP-92 = system: HOP-92
# BT-549 = system: BT-549
# PC-3 = system: PC-3
# SF-268 = system: SF-268
# M14 = system: M14
# 786-0 = system: 786-0
# U-251 = system: U-251
# SNB-19 = system: SNB-19
# K562 = system: K562
# Hs-578T = system: Hs-578T
SMILES,GI50 (SW-620),GI50 (SK-MEL-5),GI50 (SNB-75),GI50 (A498),GI50 (LOX IMVI),GI50 (SK-OV-3),GI50 (MOLT-4),GI50 (MCF7),GI50 (NCI-H522),GI50 (ACHN),GI50 (HOP-92),GI50 (BT-549),GI50 (PC-3),GI50 (SF-268),GI50 (M14),GI50 (786-0),GI50 (U-251),GI50 (SNB-19),GI50 (K562),GI50 (Hs-578T)
CCOC(=O)c1c(C)n(Cc2ccc(Cl)cc2Cl)c2c1cc(O)c1[nH]c3c(c12)CCCC3,30.7 µM (inactive),20.5 µM (inactive),23.3 µM (inactive),19.5 µM (inactive),33.5 µM (inactive),41.2 µM (inactive),< 0.01 µM (active),14.6 µM (inactive),16.1 µM (inactive),25.6 µM (inactive),20.2 µM (inactive),18.9 µM (inactive),19.9 µM (inactive),20.8 µM (inactive),26.7 µM (inactive),30.1 µM (inactive),37.8 µM (inactive),23.6 µM (inactive),,
CC(=O)OCC(C)C1=C(O)C(=O)C2(C)C/C=C(/C)CC/C=C(\C)CCC(O)C(C)CCC12 (stereo not drawn),19.2 µM (inactive),17.7 µM (inactive),16.2 µM (inactive),21.6 µM (inactive),18.1 µM (inactive),,10 µM (inactive),24.9 µM (inactive),17.3 µM (inactive),16.7 µM (inactive),18 µM (inactive),,15.3 µM (inactive),18 µM (inactive),17.8 µM (inactive),16.9 µM (inactive),17 µM (inactive),18.4 µM (inactive),14.1 µM (inactive),19.6 µM (inactive)
O=C(O)CCC(=O)N1C/C(=C\c2ccccc2)C(=O)/C(=C/c2ccccc2)C1,1.58 µM (inactive),2.65 µM (inactive),6.82 µM (inactive),13.9 µM (inactive),1.68 µM (inactive),12.7 µM (inactive),2.34 µM (inactive),,1.07 µM (active),2.07 µM (inactive),16.3 µM (inactive),,,2.48 µM (inactive),2.32 µM (inactive),2.52 µM (inactive),1.78 µM (inactive),3.16 µM (inactive),1.19 µM (inactive),
CC(C)c1ccc(/C=C(\NC(=O)c2ccccc2)c2nc3ccccc3[nH]2)cc1,49.4 µM (inactive),23.5 µM (inactive),36.3 µM (inactive),40.6 µM (inactive),27.2 µM (inactive),> 100 µM (inactive),23.3 µM (inactive),,26.7 µM (inactive),33.7 µM (inactive),36.7 µM (inactive),,,41 µM (inactive),32.3 µM (inactive),39.3 µM (inactive),39.4 µM (inactive),47.8 µM (inactive),27.5 µM (inactive),
CC(C(=O)COCc1ccccc1)P1(=O)OC(C)(C)CN1C(C)(C)C (stereo not drawn),> 100 µM (inactive),> 100 µM (inactive),54.7 µM (inactive),> 100 µM (inactive),> 100 µM (inactive),> 100 µM (inactive),> 100 µM (inactive),> 100 µM (inactive),> 100 µM (inactive),> 100 µM (inactive),> 100 µM (inactive),,,> 100 µM (inactive),> 100 µM (inactive),> 100 µM (inactive),,,,> 100 µM (inactive)
OC(c1ccoc1)c1cc2ccccc2s1 (stereo not drawn),> 10 µM (inactive),> 10 µM (inactive),> 10 µM (inactive),,> 10 µM (inactive),> 10 µM (inactive),> 10 µM (inactive),> 10 µM (inactive),> 10 µM (inactive),> 10 µM (inactive),> 10 µM (inactive),,> 10 µM (inactive),> 10 µM (inactive),> 10 µM (inactive),> 10 µM (inactive),> 10 µM (inactive),> 10 µM (inactive),> 10 µM (inactive),> 10 µM (inactive)
COc1ccc(C2=Nc3ccccc3NC(=O)C2)cc1,16.7 µM (inactive),> 100 µM (inactive),23.8 µM (inactive),45.2 µM (inactive),18.3 µM (inactive),21.5 µM (inactive),> 100 µM (inactive),,38.9 µM (inactive),41.2 µM (inactive),21 µM (inactive),,,23.4 µM (inactive),> 100 µM (inactive),33.3 µM (inactive),28 µM (inactive),28.2 µM (inactive),> 100 µM (inactive),
CCCC(=O)OC[n+]1ccc2c(C)c3[nH]c4ccccc4c3c(C)c2c1,0.215 µM (active),1.54 µM (inactive),> 100 µM (inactive),1.34 µM (inactive),0.341 µM (active),0.547 µM (active),0.0661 µM (active),,0.832 µM (active),0.504 µM (active),1.32 µM (inactive),,,0.661 µM (active),1.12 µM (inactive),0.305 µM (active),0.498 µM (active),0.935 µM (active),0.466 µM (active),
COc1c(C)c2nc3ccccc3nc2c2c(O)ccnc12,> 100 µM (inactive),35.6 µM (inactive),7.13 µM (inactive),43.3 µM (inactive),> 100 µM (inactive),75.7 µM (inactive),> 100 µM (inactive),> 100 µM (inactive),71.3 µM (inactive),30.1 µM (inactive),36.4 µM (inactive),,> 100 µM (inactive),68.7 µM (inactive),> 100 µM (inactive),16.9 µM (inactive),54.5 µM (inactive),36.6 µM (inactive),> 100 µM (inactive),16 µM (inactive)
CC(=O)Nc1ccc(/C=c2\sc3nnc(-c4cccnc4)n3c2=O)cc1,17.8 µM (inactive),17.4 µM (inactive),22.2 µM (inactive),75.2 µM (inactive),16.5 µM (inactive),24 µM (inactive),19.7 µM (inactive),,16.1 µM (inactive),14 µM (inactive),12 µM (inactive),,,25.2 µM (inactive),18.7 µM (inactive),16.6 µM (inactive),17.8 µM (inactive),24.2 µM (inactive),22.4 µM (inactive),
c1ccc(C2C3=C(Nc4ncnn42)c2ccccc2C3)cc1 (stereo not drawn),4.93 µM (inactive),10.9 µM (inactive),83.9 µM (inactive),51.2 µM (inactive),15.6 µM (inactive),13.2 µM (inactive),17.4 µM (inactive),,6.14 µM (inactive),82.6 µM (inactive),21.8 µM (inactive),,,20 µM (inactive),5.38 µM (inactive),25.4 µM (inactive),2.93 µM (inactive),14.9 µM (inactive),7.93 µM (inactive),
O=C(CSCC(=O)N/N=C\c1cccc([N+](=O)[O-])c1)N/N=C\c1cccc([N+](=O)[O-])c1,> 100 µM (inactive),> 100 µM (inactive),37.1 µM (inactive),41.1 µM (inactive),53.1 µM (inactive),52.1 µM (inactive),> 100 µM (inactive),38.5 µM (inactive),43.8 µM (inactive),14 µM (inactive),32.4 µM (inactive),,,39.9 µM (inactive),> 100 µM (inactive),18.2 µM (inactive),13.5 µM (inactive),18 µM (inactive),,45.4 µM (inactive)
CCc1ccc(/N=C\c2cc(OC)c(OC)c(OC)c2)cc1,10.9 µM (inactive),> 100 µM (inactive),> 100 µM (inactive),> 100 µM (inactive),20.9 µM (inactive),> 100 µM (inactive),> 100 µM (inactive),,> 100 µM (inactive),> 100 µM (inactive),> 100 µM (inactive),,,> 100 µM (inactive),> 100 µM (inactive),> 100 µM (inactive),> 100 µM (inactive),> 100 µM (inactive),26.5 µM (inactive),
CC(C)=CCc1ccc2[nH]c3c(c2c1)C(=O)C(=O)C(C)=C3C(O)C(C)O (stereo not drawn),2.09 µM (inactive),2.45 µM (inactive),17.7 µM (inactive),12.5 µM (inactive),2 µM (inactive),16.2 µM (inactive),1.7 µM (inactive),1.63 µM (inactive),1.69 µM (inactive),4.27 µM (inactive),1.51 µM (inactive),,9.57 µM (inactive),12.9 µM (inactive),1.91 µM (inactive),1.87 µM (inactive),6.03 µM (inactive),17 µM (inactive),2.07 µM (inactive),15.1 µM (inactive)
CC(=O)OC1CC2c3cccc4c3C(CC2N(C)C1=O)CN4C(=O)c1ccccc1 (stereo not drawn),23.4 µM (inactive),14.4 µM (inactive),,21.5 µM (inactive),12.1 µM (inactive),22.7 µM (inactive),20.9 µM (inactive),23.1 µM (inactive),4.24 µM (inactive),20 µM (inactive),4.25 µM (inactive),6.9 µM (inactive),20.2 µM (inactive),2.2 µM (inactive),22.1 µM (inactive),15.2 µM (inactive),15.7 µM (inactive),30.3 µM (inactive),27.5 µM (inactive),
C=C(CN(C)C)C1(c2ccccc2)CC2(CCCC2)C(=O)O1 (stereo not drawn),> 100 µM (inactive),> 100 µM (inactive),> 100 µM (inactive),> 100 µM (inactive),53 µM (inactive),> 100 µM (inactive),24.9 µM (inactive),74.1 µM (inactive),20.9 µM (inactive),92.5 µM (inactive),17.9 µM (inactive),,79.6 µM (inactive),> 100 µM (inactive),66.5 µM (inactive),66.5 µM (inactive),> 100 µM (inactive),> 100 µM (inactive),30.2 µM (inactive),> 100 µM (inactive)

# From ChEMBL document CHEMBL1201862, “PubChem BioAssay data set” (2004)
